Results as given in the Kinase Knowledgebase extract (Sharma et al. 2016).

Legend:
PIK3CA (human) = PIK3CA (human) (UniProt P42336); experiment: Assessment of PIK3CA Kinase Activity
PIK3CB (Human) = PIK3CB (Human) (UniProt P42338); experiment: Assessment of PIK3CB Kinase Activity
PIK3CG (human) = PIK3CG (human) (UniProt P48736); experiment: Assessment of PIK3CG Kinase Activity
PIK3CD (Human) = PIK3CD (Human) (UniProt O00329); experiment: Assessment of PIK3CD Kinase Activity
Chain of PIK3CD (Human) (O00329 whole entry, looked up): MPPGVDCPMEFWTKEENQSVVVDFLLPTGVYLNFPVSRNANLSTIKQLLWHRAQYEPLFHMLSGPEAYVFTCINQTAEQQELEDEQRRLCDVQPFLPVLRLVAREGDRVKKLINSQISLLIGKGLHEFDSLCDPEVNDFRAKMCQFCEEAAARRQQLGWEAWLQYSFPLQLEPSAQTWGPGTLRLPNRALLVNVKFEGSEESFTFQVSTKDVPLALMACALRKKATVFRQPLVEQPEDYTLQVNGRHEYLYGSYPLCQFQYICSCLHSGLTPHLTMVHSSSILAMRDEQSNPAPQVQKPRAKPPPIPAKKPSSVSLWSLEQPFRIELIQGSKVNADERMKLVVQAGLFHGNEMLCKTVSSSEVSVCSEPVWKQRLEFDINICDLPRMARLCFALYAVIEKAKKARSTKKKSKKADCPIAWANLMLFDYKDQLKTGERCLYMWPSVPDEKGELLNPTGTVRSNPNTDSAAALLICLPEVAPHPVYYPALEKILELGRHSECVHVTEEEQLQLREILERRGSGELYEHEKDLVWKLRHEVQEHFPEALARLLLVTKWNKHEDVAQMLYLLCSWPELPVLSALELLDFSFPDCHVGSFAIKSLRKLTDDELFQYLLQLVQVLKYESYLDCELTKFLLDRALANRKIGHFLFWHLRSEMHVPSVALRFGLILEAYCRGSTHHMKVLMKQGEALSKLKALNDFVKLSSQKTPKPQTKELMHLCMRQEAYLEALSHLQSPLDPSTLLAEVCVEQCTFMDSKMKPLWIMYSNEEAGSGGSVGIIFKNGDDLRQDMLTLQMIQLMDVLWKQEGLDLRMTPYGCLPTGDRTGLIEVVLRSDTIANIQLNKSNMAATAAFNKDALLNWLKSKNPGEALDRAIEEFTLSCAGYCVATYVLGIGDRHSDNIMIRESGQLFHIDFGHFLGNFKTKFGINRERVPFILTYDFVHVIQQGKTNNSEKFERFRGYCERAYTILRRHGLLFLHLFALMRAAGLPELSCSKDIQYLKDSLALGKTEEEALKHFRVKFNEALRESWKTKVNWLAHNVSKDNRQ

Chain of PIK3CA (human) (P42336 whole entry, looked up): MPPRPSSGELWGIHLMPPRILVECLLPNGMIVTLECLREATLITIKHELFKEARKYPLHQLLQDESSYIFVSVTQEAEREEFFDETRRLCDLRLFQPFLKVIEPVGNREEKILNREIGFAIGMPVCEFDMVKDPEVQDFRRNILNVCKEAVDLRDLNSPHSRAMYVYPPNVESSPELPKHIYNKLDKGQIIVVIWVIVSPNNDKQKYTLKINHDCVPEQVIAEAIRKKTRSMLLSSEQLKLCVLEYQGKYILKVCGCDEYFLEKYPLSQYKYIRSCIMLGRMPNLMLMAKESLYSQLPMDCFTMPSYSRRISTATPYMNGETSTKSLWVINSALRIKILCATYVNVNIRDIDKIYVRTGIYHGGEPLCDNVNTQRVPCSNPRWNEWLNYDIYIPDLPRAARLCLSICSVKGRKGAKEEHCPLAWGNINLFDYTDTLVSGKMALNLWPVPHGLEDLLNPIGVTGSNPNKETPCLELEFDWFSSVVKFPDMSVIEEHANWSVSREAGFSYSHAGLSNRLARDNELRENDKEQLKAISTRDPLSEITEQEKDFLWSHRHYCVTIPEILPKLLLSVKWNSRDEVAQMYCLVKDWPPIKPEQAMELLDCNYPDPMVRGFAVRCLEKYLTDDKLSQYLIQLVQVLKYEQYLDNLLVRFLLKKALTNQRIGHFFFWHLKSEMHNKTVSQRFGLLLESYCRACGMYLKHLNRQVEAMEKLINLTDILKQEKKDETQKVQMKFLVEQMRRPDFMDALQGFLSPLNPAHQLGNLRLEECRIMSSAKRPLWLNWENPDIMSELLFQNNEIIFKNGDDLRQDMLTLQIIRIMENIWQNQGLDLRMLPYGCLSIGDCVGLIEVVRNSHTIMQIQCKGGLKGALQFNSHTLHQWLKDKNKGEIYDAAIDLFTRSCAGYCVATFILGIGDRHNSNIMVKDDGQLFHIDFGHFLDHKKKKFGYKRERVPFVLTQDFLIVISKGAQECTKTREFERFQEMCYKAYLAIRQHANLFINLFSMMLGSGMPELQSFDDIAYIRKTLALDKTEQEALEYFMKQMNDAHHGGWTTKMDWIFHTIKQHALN
Chain of PIK3CB (Human) (P42338 whole entry, looked up): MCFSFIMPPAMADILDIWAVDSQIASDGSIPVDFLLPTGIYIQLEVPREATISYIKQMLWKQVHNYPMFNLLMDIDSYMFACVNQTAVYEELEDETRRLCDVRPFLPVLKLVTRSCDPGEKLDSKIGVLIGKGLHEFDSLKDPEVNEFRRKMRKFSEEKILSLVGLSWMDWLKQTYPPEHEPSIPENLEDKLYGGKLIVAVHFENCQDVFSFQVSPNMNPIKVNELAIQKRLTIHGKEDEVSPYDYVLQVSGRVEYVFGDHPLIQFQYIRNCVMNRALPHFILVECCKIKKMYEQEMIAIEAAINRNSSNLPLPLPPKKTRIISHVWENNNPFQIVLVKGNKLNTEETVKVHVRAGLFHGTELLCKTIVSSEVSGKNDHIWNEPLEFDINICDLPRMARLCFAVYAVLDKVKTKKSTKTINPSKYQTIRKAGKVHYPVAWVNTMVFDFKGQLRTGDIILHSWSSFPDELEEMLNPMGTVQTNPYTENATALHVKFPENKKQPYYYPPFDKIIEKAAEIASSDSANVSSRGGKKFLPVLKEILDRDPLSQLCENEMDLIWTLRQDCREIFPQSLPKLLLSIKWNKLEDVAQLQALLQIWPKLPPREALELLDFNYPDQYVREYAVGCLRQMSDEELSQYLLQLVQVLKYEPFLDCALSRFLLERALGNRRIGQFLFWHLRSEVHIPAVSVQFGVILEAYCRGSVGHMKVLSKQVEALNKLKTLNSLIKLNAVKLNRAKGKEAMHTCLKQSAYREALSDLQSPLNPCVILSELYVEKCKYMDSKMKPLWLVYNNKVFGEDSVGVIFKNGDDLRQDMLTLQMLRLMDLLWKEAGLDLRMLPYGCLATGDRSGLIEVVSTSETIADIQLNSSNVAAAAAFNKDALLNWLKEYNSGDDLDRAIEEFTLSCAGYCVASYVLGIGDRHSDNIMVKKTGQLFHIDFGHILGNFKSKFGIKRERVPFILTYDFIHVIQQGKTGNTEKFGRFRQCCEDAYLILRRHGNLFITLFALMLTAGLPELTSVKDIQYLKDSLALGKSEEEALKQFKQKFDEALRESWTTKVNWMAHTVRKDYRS
Chain of PIK3CG (human) (P48736 whole entry, looked up): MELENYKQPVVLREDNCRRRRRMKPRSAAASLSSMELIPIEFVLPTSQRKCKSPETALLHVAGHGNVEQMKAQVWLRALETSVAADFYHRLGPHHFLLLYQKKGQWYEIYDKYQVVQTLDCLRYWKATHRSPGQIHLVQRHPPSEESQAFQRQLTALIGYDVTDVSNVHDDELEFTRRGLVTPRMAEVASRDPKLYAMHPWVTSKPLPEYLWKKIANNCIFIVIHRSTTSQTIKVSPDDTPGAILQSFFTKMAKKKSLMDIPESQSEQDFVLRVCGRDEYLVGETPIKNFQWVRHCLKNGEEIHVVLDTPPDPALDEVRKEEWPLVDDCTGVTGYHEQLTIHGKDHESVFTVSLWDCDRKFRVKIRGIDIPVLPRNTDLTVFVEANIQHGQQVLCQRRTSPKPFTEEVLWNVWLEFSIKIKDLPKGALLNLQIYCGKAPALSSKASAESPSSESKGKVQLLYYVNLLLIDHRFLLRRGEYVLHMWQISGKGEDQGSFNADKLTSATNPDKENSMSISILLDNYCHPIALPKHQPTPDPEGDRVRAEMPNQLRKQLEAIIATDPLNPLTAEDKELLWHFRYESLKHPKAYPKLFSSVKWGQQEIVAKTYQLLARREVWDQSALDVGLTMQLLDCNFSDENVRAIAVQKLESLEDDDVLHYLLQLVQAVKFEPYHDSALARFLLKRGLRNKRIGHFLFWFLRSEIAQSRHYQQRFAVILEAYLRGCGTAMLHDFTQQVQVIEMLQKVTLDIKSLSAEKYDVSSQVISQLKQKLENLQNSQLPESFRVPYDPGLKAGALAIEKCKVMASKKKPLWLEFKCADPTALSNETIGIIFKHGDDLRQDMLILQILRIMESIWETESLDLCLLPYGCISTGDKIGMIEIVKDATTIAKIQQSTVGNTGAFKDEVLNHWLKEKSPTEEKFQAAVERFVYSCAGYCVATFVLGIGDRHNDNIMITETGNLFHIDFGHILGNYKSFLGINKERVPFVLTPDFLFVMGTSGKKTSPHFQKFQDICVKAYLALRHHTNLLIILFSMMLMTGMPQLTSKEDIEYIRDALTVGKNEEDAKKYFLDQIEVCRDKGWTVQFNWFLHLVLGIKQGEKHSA

| SMILES | IC50 (PIK3CA (human)) | other results |
| --- | --- | --- |
| CN(Cc1cc2nc(-c3ccc(OCCO)nc3)nc(N3CCOCC3)c2s1)c1ncc(C(=O)NO)cn1 | < 100 nM |  |
| CNc1ncc(-c2nc(N3CCOCC3)c3sc(NCCCCC(=O)NO)cc3n2)cn1 | < 100 nM |  |
| CS(=O)(=O)N1CCN(Cc2cc3nc(-c4cccc5c4cnn5CCCCCCC(=O)NO)nc(N4CCOCC4)c3s2)CC1 | > 10000 nM |  |
| CS(=O)(=O)N1CCN(Cc2cc3nc(-c4cccc5[nH]ncc45)nc(NCCCCC(=O)NO)c3s2)CC1 | > 10000 nM |  |
| Cn1c(CNCc2cc3nc(-c4ccc(N)cc4)nc(N4CCOCC4)c3s2)nc2cc(C=CC(=O)NO)ccc21 | 100 to 1000 nM |  |
| CNc1ccc(-c2nc(N3CCOCC3)c3sc(CN(CCO)c4ncc(C(=O)NO)cn4)cc3n2)cn1 | < 100 nM |  |
| CNc1ccc(-c2nc(N3CCOCC3)c3sc(NS(=O)(=O)c4ccc(C=CC(=O)NO)cc4)cc3n2)cn1 | < 100 nM |  |
| CN(Cc1cc2nc(-c3cccc4[nH]c(=O)[nH]c34)nc(N3CCOCC3)c2s1)c1ncc(C(=O)NO)cn1 | 100 to 1000 nM |  |
| CNc1ccc(-c2nc(N3CCOCC3)c3sc(C(=O)NCC4CCN(c5ncc(C(=O)NO)cn5)CC4)cc3n2)cn1 | < 100 nM |  |
| CN(Cc1cc2nc(-c3cccc(S(=O)(=O)CCO)c3)nc(N3CCOCC3)c2s1)c1ncc(C(=O)NO)cn1 | > 10000 nM |  |
| COc1ncc(-c2nc(N3CCOCC3)c3sc(NS(=O)(=O)c4cccc(C=CC(=O)NO)c4)cc3n2)cn1 | < 100 nM |  |
| COc1ncc(-c2nc(N3CCOCC3)c3sc(C(C)N(C)c4ncc(C(=O)NO)cn4)cc3n2)cn1 (configuration not stated) | < 100 nM |  |
| CS(=O)(=O)N1CCN(Cc2cc3nc(-c4ccc(OCCCCCCC(=O)NO)cc4)nc(N4CCOCC4)c3s2)CC1 | 100 to 1000 nM |  |
| CNc1ccc(-c2nc(N3CCOCC3)c3sc(NCCCCC(=O)NO)cc3n2)cn1 | < 100 nM |  |
| CC(=O)N1CCN(c2nc(-c3cccc4[nH]ncc34)nc3cc(CN(C)c4ncc(C(=O)NO)cn4)sc23)CC1 | > 10000 nM |  |
| Nc1ncc(-c2nc(N3CCOCC3)c3sc(NCCCCCCC(=O)NO)cc3n2)cn1 | < 100 nM |  |
| CN(Cc1cc2nc(-c3cccc4[nH]ncc34)nc(N3CCNCC3)c2s1)c1ncc(C(=O)NO)cn1 | > 10000 nM |  |
| CS(=O)(=O)N1CCN(Cc2cc3nc(-c4cccc5[nH]ncc45)nc(N4CCN(CCCCCCC(=O)NO)CC4)c3s2)CC1 | > 10000 nM |  |

| SMILES | IC50 (PIK3CA (human)) | other results |
| --- | --- | --- |
| CNc1ccc(-c2nc(N3CCOCC3)c3sc(CNCc4nc5cc(C=CC(=O)NO)ccc5n4C)cc3n2)cn1 | < 100 nM |  |
| CCN(CC)c1ccc(-c2nc(N3CCOCC3)c3sc(CN(C)c4ncc(C(=O)NO)cn4)cc3n2)cc1 | > 10000 nM |  |
| Nc1ccc(-c2nc(N3CCOCC3)c3sc(CNCc4ccc(C(=O)NO)cc4)cc3n2)cc1 | > 10000 nM |  |
| CNc1ccc(-c2nc(N3CCOCC3)c3sc(C(C)(C)N(C)c4ncc(C(=O)NO)cn4)cc3n2)cn1 | 100 to 1000 nM |  |
| CC(=O)NCc1ccc(-c2nc(N3CCOCC3)c3sc(CN(C)c4ncc(C(=O)NO)cn4)cc3n2)cc1 | > 10000 nM |  |
| COc1ncc(-c2nc(N3CCOCC3)c3sc(C(C)(C)N(C)c4ncc(C(=O)NO)cn4)cc3n2)cn1 | 100 to 1000 nM |  |
| Cn1cc(-c2nc(N3CCOCC3)c3sc(CN(CCO)c4ncc(C(=O)NO)cn4)cc3n2)cn1 | 100 to 1000 nM |  |
| COc1ncc(-c2nc(N3CCOCC3)c3sc(NS(=O)(=O)c4ccc(C=CC(=O)NO)cc4)cc3n2)cn1 | < 100 nM |  |
| CC(C)C(=O)Nc1ccc(-c2nc(N3CCOCC3)c3sc(CN(C)c4ncc(C(=O)NO)cn4)cc3n2)cc1 | 100 to 1000 nM |  |
| CS(=O)(=O)N1CCN(Cc2cc3nc(-c4cccc5[nH]ncc45)nc(NCCCCCC(=O)NO)c3s2)CC1 | > 10000 nM |  |
| CCCc1nc2cc(C=CC(=O)NO)ccc2n1CCN(C)Cc1cc2nc(-c3ccc(N)cc3)nc(N3CCOCC3)c2s1 | 100 to 1000 nM |  |
| Nc1ccc(-c2nc(N3CCOCC3)c3sc(S(=O)(=O)NCC4CCN(c5ncc(C(=O)NO)cn5)CC4)cc3n2)cc1 | 100 to 1000 nM |  |
| CN1CCN(c2nc(-c3cccc4[nH]ncc34)nc3cc(CN(C)c4ncc(C(=O)NO)cn4)sc23)CC1 | > 10000 nM |  |
| Cc1ncc(-c2nc(N3CCOCC3)c3sc(NCCCCC(=O)NO)cc3n2)cn1 | < 100 nM |  |
| COc1ccc(Nc2nc(-c3cccc4[nH]ncc34)nc3cc(CN(C)c4ncc(C(=O)NO)cn4)sc23)cc1 | > 10000 nM |  |
| CN(Cc1cc2nc(-c3cccc4c3CCN4)nc(N3CCOCC3)c2s1)c1ncc(C(=O)NO)cn1 | > 10000 nM |  |
| CCCc1nc2cc(C=CC(=O)NO)ccc2n1CCN(C)Cc1cc2nc(-c3ccc(NC)nc3)nc(N3CCOCC3)c2s1 | 100 to 1000 nM |  |

Second part, led by results:

| IC50 (PIK3CA (human)) | SMILES | other results |
| --- | --- | --- |
| > 10000 nM | CN(C)c1ccc(-c2nc(N3CCOCC3)c3sc(CN(C)c4ncc(C(=O)NO)cn4)cc3n2)cc1 |  |
| > 10000 nM | CN(Cc1cc2nc(-c3ccccc3)nc(N3CCOCC3)c2s1)c1ncc(C(=O)NO)cn1 |  |
| > 10000 nM | CCNc1ccc(-c2nc(N3CCOCC3)c3sc(CN(C)c4ncc(C(=O)NO)cn4)cc3n2)cc1 |  |
| 100 to 1000 nM | CN(Cc1cc2nc(-c3cccc(C(=O)O)c3)nc(N3CCOCC3)c2s1)c1ncc(C(=O)NO)cn1 |  |
| 100 to 1000 nM | CC(=O)c1cc(-c2nc(N3CCOCC3)c3sc(CN(C)c4ncc(C(=O)NO)cn4)cc3n2)ccc1N |  |
| > 10000 nM | CNc1ccc(-c2nc(N3CCOCC3)c3sc(CN(C)c4ncc(C(=O)NO)cn4)cc3n2)cc1 |  |
| 100 to 1000 nM | CN(Cc1cc2nc(-c3cccc(CCO)c3)nc(N3CCOCC3)c2s1)c1ncc(C(=O)NO)cn1 |  |
| < 100 nM | CN(Cc1cc2nc(-c3cccc4[nH]c(=O)sc34)nc(N3CCOCC3)c2s1)c1ncc(C(=O)NO)cn1 |  |
| 100 to 1000 nM | CN(Cc1cc2nc(-c3ccc(N)cc3F)nc(N3CCOCC3)c2s1)c1ncc(C(=O)NO)cn1 |  |
| 100 to 1000 nM | CN(Cc1cc2nc(-c3cc(F)c(N)c(F)c3)nc(N3CCOCC3)c2s1)c1ncc(C(=O)NO)cn1 |  |
| 100 to 1000 nM | Cc1ncc(-c2nc(N3CCOCC3)c3sc(CN(C)c4ncc(C(=O)NO)cn4)cc3n2)s1 |  |
| < 100 nM | CCOc1ccc(-c2nc(N3CCOCC3)c3sc(CN(C)c4ncc(C(=O)NO)cn4)cc3n2)cn1 |  |
| < 100 nM | CN(Cc1cc2nc(-c3ccc(N)cc3Cl)nc(N3CCOCC3)c2s1)c1ncc(C(=O)NO)cn1 |  |
| > 10000 nM | CN(Cc1cc2nc(-c3ccc4c(c3)CCN4)nc(N3CCOCC3)c2s1)c1ncc(C(=O)NO)cn1 |  |
| > 10000 nM | CN(Cc1cc2nc(-c3cccc4c3CC(=O)N4)nc(N3CCOCC3)c2s1)c1ncc(C(=O)NO)cn1 |  |
| < 100 nM | CC(O)c1cccc(-c2nc(N3CCOCC3)c3sc(CN(C)c4ncc(C(=O)NO)cn4)cc3n2)c1 (configuration not stated) |  |
| < 100 nM | CNc1ccc(-c2nc(N3CCOCC3)c3sc(CN(C)c4ncc(C(=O)NO)cn4)cc3n2)cn1 | IC50 (PIK3CB (Human)): 100 to 1000 nM; IC50 (PIK3CG (human)): 100 to 1000 nM; IC50 (PIK3CD (Human)): < 100 nM |
| < 100 nM | CN(Cc1cc2nc(-c3ccc([N+](=O)[O-])c(O)c3)nc(N3CCOCC3)c2s1)c1ncc(C(=O)NO)cn1 |  |
| < 100 nM | CN(Cc1cc2nc(-c3ccc(N)c(CO)c3)nc(N3CCOCC3)c2s1)c1ncc(C(=O)NO)cn1 |  |
